Reference: patent EP0760376A1, “PEPTIDES INHIBITING PHOSPHOLIPASE C” (Kyowa Hakko Kogyo Co., Ltd., priority 1995, dated 1996)
Converted amounts (≈) assume the structure as drawn. Square brackets hold non-standard residues; d marks the D form. Peptide text beside a SMILES is read from it. * marks the point of attachment. Stearoyl = CCCCCCCCCCCCCCCCCC(=O)*; 12Ado = NCCCCCCCCCCCC(=O)O; Aoc = NCCCCCCCC(=O)O; Ahp = NCCCCCCC(=O)O; Ahx = NCCCCCC(=O)O; Ava = NCCCCC(=O)O; GABA = NCCCC(=O)O

Legend:
PLC-γ1 = target: T1, PLC-γ1 (Bos taurus, UniProt P08487); test: PLC-inhibiting activity (release of [3H]inositol phosphate from [3H]PIP2); assay type: biochemical, bovine; settings: 37°C, 10 minutes, pH 6.0, read-out: Inhibition rate (%)
T1 construct: A sample of PLC-γ1 was prepared from bovine thymus; from tissue; host or cells: bovine thymus
T1 sequence (P08487 1-1291): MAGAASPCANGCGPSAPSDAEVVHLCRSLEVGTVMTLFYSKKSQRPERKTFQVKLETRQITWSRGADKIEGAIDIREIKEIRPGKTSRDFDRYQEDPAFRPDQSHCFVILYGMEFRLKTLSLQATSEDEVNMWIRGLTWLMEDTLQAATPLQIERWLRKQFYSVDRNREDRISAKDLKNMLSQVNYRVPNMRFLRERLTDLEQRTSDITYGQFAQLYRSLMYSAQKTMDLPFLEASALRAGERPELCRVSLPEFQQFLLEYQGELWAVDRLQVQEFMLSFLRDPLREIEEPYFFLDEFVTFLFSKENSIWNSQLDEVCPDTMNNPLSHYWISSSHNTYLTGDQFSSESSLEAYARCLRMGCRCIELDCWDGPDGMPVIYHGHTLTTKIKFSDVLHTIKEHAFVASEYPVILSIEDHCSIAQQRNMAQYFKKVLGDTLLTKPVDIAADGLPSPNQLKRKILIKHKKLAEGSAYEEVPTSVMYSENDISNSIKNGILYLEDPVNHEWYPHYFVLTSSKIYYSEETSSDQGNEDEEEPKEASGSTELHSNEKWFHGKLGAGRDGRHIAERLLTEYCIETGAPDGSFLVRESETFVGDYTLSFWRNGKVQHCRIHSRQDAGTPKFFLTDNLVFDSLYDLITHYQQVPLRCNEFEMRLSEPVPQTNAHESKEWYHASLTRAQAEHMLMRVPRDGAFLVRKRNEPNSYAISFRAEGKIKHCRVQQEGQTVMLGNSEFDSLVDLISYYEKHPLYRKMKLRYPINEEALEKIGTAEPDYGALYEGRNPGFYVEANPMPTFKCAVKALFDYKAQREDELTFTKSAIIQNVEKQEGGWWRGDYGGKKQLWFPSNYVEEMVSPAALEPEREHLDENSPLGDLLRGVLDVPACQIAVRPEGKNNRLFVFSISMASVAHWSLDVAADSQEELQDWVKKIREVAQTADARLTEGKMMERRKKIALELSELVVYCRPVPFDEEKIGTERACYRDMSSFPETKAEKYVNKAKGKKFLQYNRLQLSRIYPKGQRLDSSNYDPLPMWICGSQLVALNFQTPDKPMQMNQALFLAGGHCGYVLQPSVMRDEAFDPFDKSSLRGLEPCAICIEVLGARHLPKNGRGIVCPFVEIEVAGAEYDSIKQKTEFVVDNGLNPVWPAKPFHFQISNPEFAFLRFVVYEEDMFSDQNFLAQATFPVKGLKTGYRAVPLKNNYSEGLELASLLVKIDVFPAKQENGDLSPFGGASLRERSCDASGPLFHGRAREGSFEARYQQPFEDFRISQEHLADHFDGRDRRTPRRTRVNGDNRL
Method: A sample of PLC-γ1 was prepared from bovine thymus according to the method described in Y. Honma et al., Biochem. J., 269, 13 (1990). A solution having the composition shown in Table 2 below was prepared on ice and was heated to 37°C to start reaction. After incubation for 10 minutes, 2 ml of a chloroform/methanol mixture (2:1, v/v) was added thereto to stop the reaction. The resulting inositol phosphate was extracted with 0.5 ml of 1 N hydrochloric acid. The extract was separated into two liquid phases by centrifugation (2000 x g, 3 minutes), and the amount of ^3H contained in the supernatant (0.7 ml) was measured with a scintillation counter. Table 2 [table] The inhibition rate (X) was calculated according to the following equation: X (%) = (A-C) / (B-C) x 100 [formula] where A is the obtained value of specific radioactivity, B is the value of specific radioactivity obtained when the same amount of water was added instead of the aqueous solution of the test peptide, and C is the value of specific radioactivity obtained when the same amount of water was added instead of the sample and the aqueous solution of the test peptide.

KMS-4 cells = test: Cell growth-inhibiting activity (BrdU incorporation, cell growth detection kit); assay type: cell-based; settings: culturing with peptide for 17 hours
Method: The cell growth-inhibiting activity was determined using a cell growth detection kit (Amersham) in the following manner. KMS-4 cells [M. Nanba et al, International Journal of Cancer, 32, 697 (1983)] were suspended in DMEM medium (Nissui Pharmaceutical Co., Ltd.) containing 10% fetal calf serum at a density of 1-2 x 10^4 cells/ml, and 1 ml of the cell suspension was put into each well of a 24-well plate (Corning Inc.). The cells were cultured in a CO2 incubator (37°C, 5% CO2) for 2 days. Then, the medium was replaced with a fresh DMEM medium containing 10% fetal calf serum, and the test peptide was added thereto, followed by culturing for 17 hours. The medium was replaced with a serum-free DMEM medium, and 0.5 ml of a solution prepared by diluting labeled reagent 5-bromo-2'-deoxyuridine (BrdU) and 5-fluoro-2'-deoxyuridine (FdU) (10:1) 1000-fold with the same medium was added to each well, followed by culturing for 2 hours. Then the medium was removed, and the cells were immobilized with an acetic acid/ethanol solution. The immobilized cells were stained according to the method for the cell growth detection kit of Amersham, and then further stained with a 1% Giemsa solution (Merck & Co., Inc.). The number of cells which incorporated BrdU and the total number of cells within one field of vision of a microscope (approximately 200 cells) were determined, and the proportion (%) of stained cells per field of vision was calculated. The above procedure was repeated 10 times, and the average value thereof was defined as the cell growth activity (%). The cell growth-inhibiting activity was calculated in the following manner. That is, the cell growth inhibition rate was calculated according to the following equation: X (%) = (1-B/A) x 100 [formula] where A is the growth activity when no peptide was added, and B is the growth activity when the test peptide was added.

[1] = tested on: Proteus vulgaris ATCC 6897; assay type: cell-based; settings: ATCC 6897, pH 7
Method: (§1) The antibacterial activity was determined by the agar dilution method using a medium (pH 7.0) which comprises 3 g/l Bacto-tryptone (Difco Laboratories), 1 g/l meat extract, 1 g/l glucose and 16 g/l agar.

[2] = tested on: Pseudomonas aeruginosa Bin H No. 1; assay type: cell-based; settings: Bin H No. 1, pH 7
Method: as §1

[3] = tested on: Bacillus subtilis No. 10707; assay type: cell-based; settings: No. 10707, pH 7
Method: as §1

Row | MIC (µg/ml) PV [1] | MIC (µg/ml) PA [2] | MIC (µg/ml) BS [3] | SMILES | Inhibition rate (%) (KMS-4 cells; Concentration 1 µM) | further results
1 | 83 µg/mL (≈ 51.2 µM) | 167 µg/mL (≈ 103 µM) | 167 µg/mL (≈ 103 µM) | CSCC[C@H](NC(=O)[C@H](CCCCN)NC(=O)[C@H](CCCNC(=N)N)NC(=O)[C@H](Cc1ccc(O)cc1)NC(=O)[C@H](CC(C)C)NC(C)=O)C(=O)N[C@@H](CCCNC(=N)N)C(=O)N[C@@H](CC(C)C)C(=O)N[C@@H](CCCNC(=N)N)C(=O)N[C@@H](Cc1ccc(O)cc1)C(=O)N1CCC[C@H]1C(=O)N[C@H](C(=O)NCCCC(N)=O)C(C)C [Compound (I-1), CH3CO-Leu-Tyr-Arg-Lys-Met-Arg-Leu-Arg-Tyr-Pro-Val-NH-(CH2)3CONH2] (Ac-LYRKMRLRYPV[GABA]-NH2) | 10% | inhibition at 123 µM (PLC-γ1; Concentration 123 µM (aqueous solution of test peptide provided for the test)): 85%
2 | 77 µg/mL (≈ 47.1 µM) | 77 µg/mL (≈ 47.1 µM) | 77 µg/mL (≈ 47.1 µM) | CSCC[C@H](NC(=O)[C@H](CCCCN)NC(=O)[C@H](CCCNC(=N)N)NC(=O)[C@H](Cc1ccc(O)cc1)NC(=O)[C@H](CC(C)C)NC(C)=O)C(=O)N[C@@H](CCCNC(=N)N)C(=O)N[C@@H](CC(C)C)C(=O)N[C@@H](CCCNC(=N)N)C(=O)N[C@@H](Cc1ccc(O)cc1)C(=O)N1CCC[C@H]1C(=O)N[C@H](C(=O)NCCCCC(N)=O)C(C)C [Compound (I-2), CH3CO-Leu-Tyr-Arg-Lys-Met-Arg-Leu-Arg-Tyr-Pro-Val-NH-(CH2)4CONH2] (Ac-LYRKMRLRYPV[Ava]-NH2) | 68% | inhibition at 122 µM (PLC-γ1; Concentration 122 µM (aqueous solution of test peptide provided for the test)): 75%
3 | 175 µg/mL (≈ 106 µM) | 175 µg/mL (≈ 106 µM) | 88 µg/mL (≈ 53.4 µM) | CSCC[C@H](NC(=O)[C@H](CCCCN)NC(=O)[C@H](CCCNC(=N)N)NC(=O)[C@H](Cc1ccc(O)cc1)NC(=O)[C@H](CC(C)C)NC(C)=O)C(=O)N[C@@H](CCCNC(=N)N)C(=O)N[C@@H](CC(C)C)C(=O)N[C@@H](CCCNC(=N)N)C(=O)N[C@@H](Cc1ccc(O)cc1)C(=O)N1CCC[C@H]1C(=O)N[C@H](C(=O)NCCCCCC(N)=O)C(C)C [Compound (I-3), CH3CO-Leu-Tyr-Arg-Lys-Met-Arg-Leu-Arg-Tyr-Pro-Val-NH-(CH2)5CONH2] (Ac-LYRKMRLRYPV[Ahx]-NH2) |  | inhibition at 121 µM (PLC-γ1; Concentration 121 µM (aqueous solution of test peptide provided for the test)): 77%; Inhibition rate (%) (KMS-4 cells; Concentration 6 µM): 53%
4 | 129 µg/mL (≈ 77.6 µM) | 129 µg/mL (≈ 77.6 µM) | 129 µg/mL (≈ 77.6 µM) | CSCC[C@H](NC(=O)[C@H](CCCCN)NC(=O)[C@H](CCCNC(=N)N)NC(=O)[C@H](Cc1ccc(O)cc1)NC(=O)[C@H](CC(C)C)NC(C)=O)C(=O)N[C@@H](CCCNC(=N)N)C(=O)N[C@@H](CC(C)C)C(=O)N[C@@H](CCCNC(=N)N)C(=O)N[C@@H](Cc1ccc(O)cc1)C(=O)N1CCC[C@H]1C(=O)N[C@H](C(=O)NCCCCCCC(N)=O)C(C)C [Compound (I-4), CH3CO-Leu-Tyr-Arg-Lys-Met-Arg-Leu-Arg-Tyr-Pro-Val-NH-(CH2)6CONH2] (Ac-LYRKMRLRYPV[Ahp]-NH2) |  | inhibition at 120 µM (PLC-γ1; Concentration 120 µM (aqueous solution of test peptide provided for the test)): 89%; Inhibition rate (%) (KMS-4 cells; Concentration 25 µM): 47%
5 |  | 163 µg/mL (≈ 97.2 µM) | 81 µg/mL (≈ 48.3 µM) | CSCC[C@H](NC(=O)[C@H](CCCCN)NC(=O)[C@H](CCCNC(=N)N)NC(=O)[C@H](Cc1ccc(O)cc1)NC(=O)[C@H](CC(C)C)NC(C)=O)C(=O)N[C@@H](CCCNC(=N)N)C(=O)N[C@@H](CC(C)C)C(=O)N[C@@H](CCCNC(=N)N)C(=O)N[C@@H](Cc1ccc(O)cc1)C(=O)N1CCC[C@H]1C(=O)N[C@H](C(=O)NCCCCCCCC(N)=O)C(C)C [Compound (I-5), CH3CO-Leu-Tyr-Arg-Lys-Met-Arg-Leu-Arg-Tyr-Pro-Val-NH-(CH2)7CONH2] (Ac-LYRKMRLRYPV[Aoc]-NH2) | 70% | inhibition at 119 µM (PLC-γ1; Concentration 119 µM (aqueous solution of test peptide provided for the test)): 83%
6 |  | 150 µg/mL (≈ 86.5 µM) |  | CSCC[C@H](NC(=O)[C@H](CCCCN)NC(=O)[C@H](CCCNC(=N)N)NC(=O)[C@H](Cc1ccc(O)cc1)NC(=O)[C@H](CC(C)C)NC(C)=O)C(=O)N[C@@H](CCCNC(=N)N)C(=O)N[C@@H](CC(C)C)C(=O)N[C@@H](CCCNC(=N)N)C(=O)N[C@@H](Cc1ccc(O)cc1)C(=O)N1CCC[C@H]1C(=O)N[C@H](C(=O)NCCCCCCCCCCCC(N)=O)C(C)C [Compound (I-7), CH3CO-Leu-Tyr-Arg-Lys-Met-Arg-Leu-Arg-Tyr-Pro-Val-NH-(CH2)11CONH2] (Ac-LYRKMRLRYPV[12Ado]-NH2) | 39% | inhibition at 114 µM (PLC-γ1; Concentration 114 µM (aqueous solution of test peptide provided for the test)): 82%
7 |  | 106 µg/mL (≈ 54.1 µM) |  | CCCCCCCCCCCCCCCCCC(=O)N[C@@H](CC(C)C)C(=O)N[C@@H](Cc1ccc(O)cc1)C(=O)N[C@@H](CCCNC(=N)N)C(=O)N[C@@H](CCCCN)C(=O)N[C@@H](CCSC)C(=O)N[C@@H](CCCNC(=N)N)C(=O)N[C@@H](CC(C)C)C(=O)N[C@@H](CCCNC(=N)N)C(=O)N[C@@H](Cc1ccc(O)cc1)C(=O)N1CCC[C@H]1C(=O)N[C@H](C(=O)NCCCCCCCCCCCC(N)=O)C(C)C [Compound (I-8), C17H35CO-Leu-Tyr-Arg-Lys-Met-Arg-Leu-Arg-Tyr-Pro-Val-NH-(CH2)11CONH2] (Stearoyl-LYRKMRLRYPV[12Ado]-NH2) |  | inhibition at 20 µM (PLC-γ1; Concentration 20 µM (aqueous solution of test peptide provided for the test)): 76%
